Here are results for 14 compounds from patent US20240417411A1, “COMPOUNDS AND METHODS FOR TREATMENT OF VIRAL INFECTIONS” (priority 2023, published 2024).

One data set concerns SARS-CoV2-NLuc. In words: microbe, parasite or virus in culture. The format is cell-based, SARS Coronavirus 2. To be noted: Severe acute respiratory syndrome coronavirus 2, 48 h, read-out: SARS-CoV2 EC50 (nM).
Data set [1] can be described thus: in vitro. It is filed as cell-based. The conditions noted are these: human. On the procedure:
Example C: CC50 MT4 Cytotoxicity of the compounds was determined in uninfected cells using the cell viability reagent in a similar fashion as described before for other cell types ([…] et al., Antimicrob Agents Chemother. 2008,52(2):655-65). […] Cells were cultured for 4-5 days at 37° C. Following the incubation, the cells were allowed to equilibrate to 25° C., and cell viability was determined by adding Cell-Titer Glo viability reagent. The mixture was incubated for 10 min, and the luminescence signal was quantified using an Envision plate reader. Untreated cell and cells treated at 2 μM puromycin (Sigma, St. Louis, MO) serve as 100% and 0% cell viability control, respectively. The percent of cell viability was calculated for each tested compound concentration relative to the 0% and 100% controls and the CC50 value was determined by non-linear regression as a compound concentration reducing the cell viability by 50%.

Data set [2] can be described thus: in vitro. It is filed as in vitro ADME. To be noted: human, s9, pH 7.4. The procedure:
Example D: GI S9 Stability […] The S9 metabolic reactions were initiated by the addition of the substrates to the S9 reaction mixture to a final concentration of 2 μM. […] Aliquots ([…]) of the diluted supernatant were analyzed on a Thermo Q-Exactive mass spectrometer as described below. Example F: Liquid Chromatography/Mass Spectroscopy Methods for S9 and Plasma Stability Quantification of test compounds, Reference Compound A (S9 stability assay nucleoside metabolite), and controls was performed by analyte/internal standard peak area ratio (PAR) values measured on a Thermo Q-Exactive mass spectrometer coupled to a Dionex UltiMate 3000 HPLC with a Leap Technologies HTC PAL autosampler. […] Mobile phase A consisted of 0.1% (v/v) formic acid in water. Mobile phase B consisted of 0.1% (v/v) formic acid in acetonitrile. Elution of analytes was achieved by a series of linear gradients of acetonitrile in water containing 0.10% (v/v) formic acid. The mass spectrometer was calibrated on a weekly basis and mass tolerance of 5 ppm was used.

In the next data set the test system is RSV-Luc5. Put plainly: microbe, parasite or virus in culture. It is filed as cell-based. The conditions noted are these: human respiratory syncytial virus, NHBE, 72 h, read-out: RSV NHBE EC50 (nM).
Data set [3] concerns Caco-2 cells (clone C2BBe1). The conditions noted are these: human, Caco-2.

For `CCC(CC)COC(=O)OC[C@H]1O[C@@](C#N)(c2ccc3c(N)ncnn23)[C@@H]2OC(=O)CC(C)(C)CC(=O)O[C@@H]21` [Compound C38, ((7aR,8R,10R,10aR)-10-(4-aminopyrrolo[2,1-f][1,2,4]triazin-7-yl)-10-cyano-4,4-dimethyl-2,6-dioxooctahydro-2H-furo[3,4-b][1,4]dioxonin-8-yl)methyl (2-ethylbutyl) carbonate], the EC50 with SARS-CoV2-NLuc is 38300 nM; in the data set on RSV-Luc5 it was over 50000 nM. This compound yielded a CC50 in “in vitro [1]” of 30.9 µM. Also, the half-life at 2 μM in the data set “in vitro [2]” turned out to be 7.17 min.

Take `N#C[C@@]1(c2ccc3c(N)ncnn23)O[C@H](CO)[C@H]2OC(=O)CCCC(=O)O[C@H]21` [Compound C10, (7aR,8R,10R,10aR)-8-(4-aminopyrrolo[2,1-f][1,2,4]triazin-7-yl)-10-(hydroxymethyl)-2,6-dioxooctahydro-2H-furo[3,4-b][1,4]dioxonine-8-carbonitrile]: the CC50 in “in vitro [1]” is over 50 µM. In “in vitro [2]”, the half-life at 2 μM is 0.768 min.

`COC(C)(C)COC(=O)OC[C@H]1O[C@@](C#N)(c2ccc3c(N)ncnn23)[C@@H]2OC(=O)CC(C)(C)CC(=O)O[C@@H]21` [Compound C39, ((7aR,8R,10R,10aR)-10-(4-aminopyrrolo[2,1-f][1,2,4]triazin-7-yl)-10-cyano-4,4-dimethyl-2,6-dioxooctahydro-2H-furo[3,4-b][1,4]dioxonin-8-yl)methyl (2-methoxy-2-methylpropyl) carbonate]: the concentration for a half-maximal effect (EC50) with SARS-CoV2-NLuc was 8580 nM. Further, in data set [3], the “Caco2 A to B” value was determined as 2 and the “Caco2 B to A” value is given as 7.17. In addition, the CC50 in “in vitro [1]” is over 50 µM. Moreover, the half-life at 2 μM in the data set “in vitro [2]” stood at 9.97 min. Besides, in the data set on RSV-Luc5, the EC50 is over 50000 nM.

Regarding `CC1(C)CC(=O)O[C@H]2[C@@H](OC(=O)C1)[C@](C#N)(c1ccc3c(N)ncnn13)O[C@@H]2COC(=O)OC(C)(C)C(F)F` [Compound C42, ((7aR,8R,10R,10aR)-10-(4-aminopyrrolo[2,1-f][1,2,4]triazin-7-yl)-10-cyano-4,4-dimethyl-2,6-dioxooctahydro-2H-furo[3,4-b][1,4]dioxonin-8-yl)methyl (1,1-difluoro-2-methylpropan-2-yl) carbonate], the EC50 in the data set with SARS-CoV2-NLuc and in the data set with RSV-Luc5 was over 50000 nM throughout. In “in vitro [1]”, the half-maximal cytotoxic concentration (CC50) was over 50 µM. This compound also registered a half-life at 2 μM in the data set “in vitro [2]” of 27.7 min.

Regarding `CC1(C)CC(=O)O[C@H]2[C@@H](OC(=O)C1)[C@](C#N)(c1ccc3c(N)ncnn13)O[C@@H]2COC(=O)OC(C)(C)c1ccncc1` [Compound C34, ((7aR,8R,10R,10aR)-10-(4-aminopyrrolo[2,1-f][1,2,4]triazin-7-yl)-10-cyano-4,4-dimethyl-2,6-dioxooctahydro-2H-furo[3,4-b][1,4]dioxonin-8-yl)methyl (2-(pyridin-4-yl)propan-2-yl) carbonate], the EC50 was 8120 nM in the data set with SARS-CoV2-NLuc and over 50000 nM with RSV-Luc5. Moreover, in “in vitro [1]”, the CC50 is over 50 µM. This compound also gave a half-life at 2 μM in “in vitro [2]” of 44.7 min.

For `N#C[C@@]1(c2ccc3c(N)ncnn23)O[C@H](COC(=O)OC2CNC2)[C@H]2OC(=O)CCCC(=O)O[C@H]21` [Compound C50, ((7aR,8R,10R,10aR)-10-(4-aminopyrrolo[2,1-f][1,2,4]triazin-7-yl)-10-cyano-2,6-dioxooctahydro-2H-furo[3,4-b][1,4]dioxonin-8-yl)methyl azetidin-3-yl carbonate 2,2,2-trifluoroacetate], the EC50 with SARS-CoV2-NLuc was determined as 3110 nM; in the data set with RSV-Luc5, 14500 nM. The compound further yielded a CC50 in “in vitro [1]” of over 50 µM. The half-life at 2 μM in the data set “in vitro [2]” came to 1.91 min.

Consider `CC1(C)CC(=O)O[C@H]2[C@@H](OC(=O)C1)[C@](C#N)(c1ccc3c(N)ncnn13)O[C@@H]2COC(=O)OCC1(C#N)CC1` [Compound C41, ((7aR,8R,10R,10aR)-10-(4-aminopyrrolo[2,1-f][1,2,4]triazin-7-yl)-10-cyano-4,4-dimethyl-2,6-dioxooctahydro-2H-furo[3,4-b][1,4]dioxonin-8-yl)methyl ((1-cyanocyclopropyl)methyl) carbonate], for which, in the data set on SARS-CoV2-NLuc, the EC50 was over 50000 nM. Also, in data set [3], the “Caco2 A to B” value was 0.54 and the “Caco2 B to A” value is recorded as 6.77. Further, the CC50 in “in vitro [1]” was over 50 µM. In the data set “in vitro [2]”, this compound came in with a half-life at 2 μM of 4.17 min. The EC50 with RSV-Luc5 is over 50000 nM.

For the compound `CC(C)OC(=O)OC[C@H]1O[C@@](C#N)(c2ccc3c(N)ncnn23)[C@@H]2OC(=O)CCCCCCC(=O)O[C@@H]21` [Compound C5, ((10aR,11R,13R,13aR)-13-(4-aminopyrrolo[2,1-f][1,2,4]triazin-7-yl)-13-cyano-2,9-dioxododecahydrofuro[3,4-b][1,4]dioxacyclododecin-11-yl)methyl isopropyl carbonate], the CC50 in the data set “in vitro [1]” was over 50 µM. Moreover, the half-life at 2 μM in “in vitro [2]” came out at 0.754 min.

In the data set “in vitro [1]”, `CC(C)OC(=O)OC[C@H]1O[C@@](C#N)(c2ccc3c(N)ncnn23)C2OC(=O)CCC(=O)OC21` (stereo partly drawn) [Compound C1, ((7R,9R)-9-(4-aminopyrrolo[2,1-f][1,2,4]triazin-7-yl)-9-cyano-2,5-dioxooctahydrofuro[3,4-b][1,4]dioxocin-7-yl)methyl isopropyl carbonate] had a CC50 of over 50 µM. The half-life at 2 μM in “in vitro [2]” was found to be 0.716 min.

Regarding `CC1(C)CC(=O)O[C@H]2[C@@H](OC(=O)C1)[C@](C#N)(c1ccc3c(N)ncnn13)O[C@@H]2COC(=O)O[C@H]1C(C)(C)[C@H]2CC[C@@]1(C)C2` [Compound C45, ((7aR,8R,10R,10aR)-10-(4-aminopyrrolo[2,1-f][1,2,4]triazin-7-yl)-10-cyano-4,4-dimethyl-2,6-dioxooctahydro-2H-furo[3,4-b][1,4]dioxonin-8-yl)methyl ((1S,2R,4S)-1,3,3-trimethylbicyclo[2.2.1]heptan-2-yl) carbonate], the EC50 with SARS-CoV2-NLuc stood at 9170 nM; in the data set on RSV-Luc5, 4160 nM. Also, half-maximal cytotoxicity in “in vitro [1]” (CC50) was put at 12.6 µM. Moreover, the half-life at 2 μM in the data set “in vitro [2]” stood at 37.3 min.

With `CC(C)(C)COC(=O)OC[C@H]1O[C@@](C#N)(c2ccc3c(N)ncnn23)[C@@H]2OC(=O)CC(C)(C)CC(=O)O[C@@H]21` [Compound C46, ((7aR,8R,10R,10aR)-10-(4-aminopyrrolo[2,1-f][1,2,4]triazin-7-yl)-10-cyano-4,4-dimethyl-2,6-dioxooctahydro-2H-furo[3,4-b][1,4]dioxonin-8-yl)methyl neopentyl carbonate], the EC50 in the data set with SARS-CoV2-NLuc was over 50000 nM; with RSV-Luc5, 11700 nM. Moreover, the CC50 in “in vitro [1]” is over 50 µM. In the data set “in vitro [2]”, this compound came in with a half-life at 2 μM of 4.71 min.

For the compound `CC1(C)CC(=O)O[C@H]2[C@@H](OC(=O)C1)[C@](C#N)(c1ccc3c(N)ncnn13)O[C@@H]2COC(=O)OCCN1CCOCC1` [Compound C36, ((7aR,8R,10R,10aR)-10-(4-aminopyrrolo[2,1-f][1,2,4]triazin-7-yl)-10-cyano-4,4-dimethyl-2,6-dioxooctahydro-2H-furo[3,4-b][1,4]dioxonin-8-yl)methyl (2-morpholinoethyl) carbonate], the half-maximal effective concentration (EC50) in the data set with SARS-CoV2-NLuc and in the data set on RSV-Luc5 was over 50000 nM in each case. For the same compound, the CC50 in the data set “in vitro [1]” is over 50 µM. The compound further yielded a half-life at 2 μM in “in vitro [2]” of 31.6 min.

Take `CC1(C)[C@H]2CC[C@@](C)(C2)[C@H]1OC(=O)OC[C@H]1O[C@@](C#N)(c2ccc3c(N)ncnn23)[C@@H]2OC(=O)CCCC(=O)O[C@@H]21` [Compound C28, ((7aR,8R,10R,10aR)-10-(4-aminopyrrolo[2,1-f][1,2,4]triazin-7-yl)-10-cyano-2,6-dioxooctahydro-2H-furo[3,4-b][1,4]dioxonin-8-yl)methyl ((1S,2R,4S)-1,3,3-trimethylbicyclo[2.2.1]heptan-2-yl) carbonate]: the EC50 with SARS-CoV2-NLuc is 21700 nM; in the data set with RSV-Luc5, 7110 nM. In the data set “in vitro [1]”, this compound showed a CC50 of 18 µM. In addition, in “in vitro [2]”, the half-life at 2 μM came to 0.595 min.

Regarding `CC1(C)CC(=O)O[C@H]2[C@@H](OC(=O)C1)[C@](C#N)(c1ccc3c(N)ncnn13)O[C@@H]2COC(=O)OC1CNC1` [Compound C51, ((7aR,8R,10R,10aR)-10-(4-aminopyrrolo[2,1-f][1,2,4]triazin-7-yl)-10-cyano-4,4-dimethyl-2,6-dioxooctahydro-2H-furo[3,4-b][1,4]dioxonin-8-yl)methyl azetidin-3-yl carbonate 2,2,2-trifluoroacetate], the EC50 with SARS-CoV2-NLuc and in the data set with RSV-Luc5 was over 50000 nM throughout. In the data set “in vitro [1]”, this compound returned a CC50 of over 50 µM. Besides, the half-life at 2 μM in “in vitro [2]” was found to be 26.6 min.
